% of control and % of inhibition data for six compounds are collected here from ChEMBL document CHEMBL5465560, “Selectivity Literature for EUbOPEN Chemogenomic Library” (2024).

Assay [1] addresses T1, Serine/threonine-protein kinase BRSK1 (Homo sapiens) (UniProt Q8TDC3).
T1 sequence (whole entry): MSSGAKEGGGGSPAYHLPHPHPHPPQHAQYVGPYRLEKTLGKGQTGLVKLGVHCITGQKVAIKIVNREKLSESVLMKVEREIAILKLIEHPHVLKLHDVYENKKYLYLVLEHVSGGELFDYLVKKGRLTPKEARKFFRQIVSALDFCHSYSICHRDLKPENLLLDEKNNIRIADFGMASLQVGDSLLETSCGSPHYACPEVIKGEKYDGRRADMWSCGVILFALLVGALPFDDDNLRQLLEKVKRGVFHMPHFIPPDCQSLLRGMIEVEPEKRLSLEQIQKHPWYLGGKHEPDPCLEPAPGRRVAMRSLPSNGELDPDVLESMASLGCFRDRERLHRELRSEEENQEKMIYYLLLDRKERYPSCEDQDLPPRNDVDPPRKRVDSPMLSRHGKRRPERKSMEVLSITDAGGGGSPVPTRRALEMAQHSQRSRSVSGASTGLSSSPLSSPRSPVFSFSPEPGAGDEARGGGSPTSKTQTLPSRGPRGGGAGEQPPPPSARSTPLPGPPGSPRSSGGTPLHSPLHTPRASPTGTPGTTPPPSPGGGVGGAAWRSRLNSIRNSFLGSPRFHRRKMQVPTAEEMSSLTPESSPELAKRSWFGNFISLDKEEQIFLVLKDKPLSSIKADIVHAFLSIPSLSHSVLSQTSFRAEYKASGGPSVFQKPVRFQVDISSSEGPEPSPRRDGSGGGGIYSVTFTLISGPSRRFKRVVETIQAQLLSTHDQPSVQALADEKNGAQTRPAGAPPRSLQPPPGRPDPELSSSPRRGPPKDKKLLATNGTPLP
The note with it: at 10 µM.

The target of assay [2] is T2, Muscarinic acetylcholine receptor M2 (Homo sapiens) (UniProt P08172).
T2 sequence (whole entry): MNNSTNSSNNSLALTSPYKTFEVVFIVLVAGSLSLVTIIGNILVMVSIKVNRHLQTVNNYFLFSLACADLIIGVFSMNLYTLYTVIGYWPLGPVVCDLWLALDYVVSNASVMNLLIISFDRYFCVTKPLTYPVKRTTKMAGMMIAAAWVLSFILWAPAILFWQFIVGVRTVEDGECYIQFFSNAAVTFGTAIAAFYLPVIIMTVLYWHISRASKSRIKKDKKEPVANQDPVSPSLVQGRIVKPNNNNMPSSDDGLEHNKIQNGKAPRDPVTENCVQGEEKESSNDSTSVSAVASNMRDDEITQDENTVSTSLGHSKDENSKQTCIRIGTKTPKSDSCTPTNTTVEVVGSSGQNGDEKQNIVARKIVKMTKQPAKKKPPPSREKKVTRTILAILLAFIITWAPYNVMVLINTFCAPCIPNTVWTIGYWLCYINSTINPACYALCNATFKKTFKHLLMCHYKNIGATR
The assay is described as follows: Selectivity interaction (GPCR panel (PDSP screen)) EUB0001079a CHRM2. The note with it: at 10 µM.

Assay [3] deals with Protein-tyrosine kinase 2-beta (Homo sapiens) (UniProt Q14289). Kind of assay: Selectivity interaction (KinomeScan (DiscoverX)) EUB0000695a PTK2B. Conditions: at 100 nM.
For assay [4], the target named is T3, Serine/threonine-protein kinase MAK (Homo sapiens) (UniProt P20794).
T3 sequence (whole entry): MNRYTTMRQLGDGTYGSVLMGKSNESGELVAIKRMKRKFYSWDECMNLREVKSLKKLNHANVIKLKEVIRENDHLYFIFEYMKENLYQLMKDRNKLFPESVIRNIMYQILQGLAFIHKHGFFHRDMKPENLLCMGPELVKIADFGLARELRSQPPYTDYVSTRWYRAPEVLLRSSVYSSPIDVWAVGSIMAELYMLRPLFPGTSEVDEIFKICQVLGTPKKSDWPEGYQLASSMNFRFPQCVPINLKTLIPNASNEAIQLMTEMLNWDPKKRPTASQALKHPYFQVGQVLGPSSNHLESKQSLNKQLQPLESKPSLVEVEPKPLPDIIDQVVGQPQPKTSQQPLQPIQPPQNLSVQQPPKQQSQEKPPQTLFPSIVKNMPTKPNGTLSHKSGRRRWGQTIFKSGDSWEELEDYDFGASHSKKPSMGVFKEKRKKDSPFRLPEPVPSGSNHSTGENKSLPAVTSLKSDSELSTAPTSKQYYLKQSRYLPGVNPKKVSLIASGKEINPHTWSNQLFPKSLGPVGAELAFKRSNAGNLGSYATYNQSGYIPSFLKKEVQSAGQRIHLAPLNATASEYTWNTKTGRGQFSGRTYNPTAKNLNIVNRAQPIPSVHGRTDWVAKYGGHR
The assay is described as follows: Selectivity interaction (KinomeScan (DiscoverX)) EUB0000695a MAK. The note with it: at 100 nM.

For assay [5], the target named is Angiopoietin-1 receptor (Homo sapiens) (UniProt Q02763). The assay is described as follows: Selectivity interaction (Kinase screening (Nanosyn)) EUB0000604a TEK.
Assay [6] relates to RAF proto-oncogene serine/threonine-protein kinase (Homo sapiens), P04049 [Y340D,Y341D]. The assay is described as follows: Selectivity interaction (SelectScreen profiling (Invitrogen)) EUB0000607a RAF1. The note with it: at 2 µM.
Assay [7] has as its target T4, Serine/threonine-protein kinase Sgk3 (Homo sapiens) (UniProt Q96BR1).
T4 sequence (whole entry): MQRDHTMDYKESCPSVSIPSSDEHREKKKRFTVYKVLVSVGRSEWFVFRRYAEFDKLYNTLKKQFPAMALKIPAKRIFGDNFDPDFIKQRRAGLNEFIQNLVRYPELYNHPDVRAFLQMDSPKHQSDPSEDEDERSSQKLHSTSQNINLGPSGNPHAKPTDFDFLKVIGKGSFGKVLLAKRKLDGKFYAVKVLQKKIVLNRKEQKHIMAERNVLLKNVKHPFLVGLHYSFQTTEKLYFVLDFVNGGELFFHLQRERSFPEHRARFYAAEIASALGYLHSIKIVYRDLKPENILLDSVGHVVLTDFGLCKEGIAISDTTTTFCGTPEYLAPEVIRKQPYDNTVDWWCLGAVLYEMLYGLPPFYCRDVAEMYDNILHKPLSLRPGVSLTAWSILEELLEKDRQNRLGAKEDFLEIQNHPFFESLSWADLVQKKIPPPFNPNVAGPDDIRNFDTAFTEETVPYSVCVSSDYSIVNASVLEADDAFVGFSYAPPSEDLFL
The assay is described as follows: Selectivity interaction (KinomeScan (DiscoverX)) EUB0000607a SGK3. The note with it: at 10 µM.

For assay [8], the target named is Calcium/calmodulin-dependent protein kinase type II subunit beta (Homo sapiens) (UniProt Q13554). The assay is described as follows: Selectivity interaction (ActivX KiNativ screen (kinase selectivity in THP-1 cell lysates)) EUB0000639a CAMK2B. The assay is classed as subcellular. Conditions: lysate, at 0.01 µM.
Calcium/calmodulin-dependent protein kinase type II subunit beta (Homo sapiens), sequence (Q13554 whole entry): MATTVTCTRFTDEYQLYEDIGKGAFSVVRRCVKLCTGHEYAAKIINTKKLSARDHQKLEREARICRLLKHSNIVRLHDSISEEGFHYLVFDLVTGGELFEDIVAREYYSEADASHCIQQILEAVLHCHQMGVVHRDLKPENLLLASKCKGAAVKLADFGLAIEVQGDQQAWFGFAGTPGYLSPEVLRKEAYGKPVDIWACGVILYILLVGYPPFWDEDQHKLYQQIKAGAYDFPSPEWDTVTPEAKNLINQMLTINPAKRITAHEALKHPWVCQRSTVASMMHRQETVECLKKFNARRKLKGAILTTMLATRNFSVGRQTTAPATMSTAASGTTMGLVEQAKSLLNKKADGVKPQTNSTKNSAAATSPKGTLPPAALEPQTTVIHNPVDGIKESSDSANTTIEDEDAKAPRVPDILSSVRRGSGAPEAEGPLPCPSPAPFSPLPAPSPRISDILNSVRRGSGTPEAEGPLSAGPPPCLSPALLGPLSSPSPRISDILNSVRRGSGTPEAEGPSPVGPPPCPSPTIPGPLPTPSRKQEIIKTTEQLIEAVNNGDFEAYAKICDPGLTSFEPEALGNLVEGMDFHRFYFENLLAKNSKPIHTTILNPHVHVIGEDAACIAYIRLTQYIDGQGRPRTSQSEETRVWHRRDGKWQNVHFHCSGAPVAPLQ

Protein-tyrosine kinase 2-beta (Homo sapiens), sequence (Q14289 whole entry, looked up): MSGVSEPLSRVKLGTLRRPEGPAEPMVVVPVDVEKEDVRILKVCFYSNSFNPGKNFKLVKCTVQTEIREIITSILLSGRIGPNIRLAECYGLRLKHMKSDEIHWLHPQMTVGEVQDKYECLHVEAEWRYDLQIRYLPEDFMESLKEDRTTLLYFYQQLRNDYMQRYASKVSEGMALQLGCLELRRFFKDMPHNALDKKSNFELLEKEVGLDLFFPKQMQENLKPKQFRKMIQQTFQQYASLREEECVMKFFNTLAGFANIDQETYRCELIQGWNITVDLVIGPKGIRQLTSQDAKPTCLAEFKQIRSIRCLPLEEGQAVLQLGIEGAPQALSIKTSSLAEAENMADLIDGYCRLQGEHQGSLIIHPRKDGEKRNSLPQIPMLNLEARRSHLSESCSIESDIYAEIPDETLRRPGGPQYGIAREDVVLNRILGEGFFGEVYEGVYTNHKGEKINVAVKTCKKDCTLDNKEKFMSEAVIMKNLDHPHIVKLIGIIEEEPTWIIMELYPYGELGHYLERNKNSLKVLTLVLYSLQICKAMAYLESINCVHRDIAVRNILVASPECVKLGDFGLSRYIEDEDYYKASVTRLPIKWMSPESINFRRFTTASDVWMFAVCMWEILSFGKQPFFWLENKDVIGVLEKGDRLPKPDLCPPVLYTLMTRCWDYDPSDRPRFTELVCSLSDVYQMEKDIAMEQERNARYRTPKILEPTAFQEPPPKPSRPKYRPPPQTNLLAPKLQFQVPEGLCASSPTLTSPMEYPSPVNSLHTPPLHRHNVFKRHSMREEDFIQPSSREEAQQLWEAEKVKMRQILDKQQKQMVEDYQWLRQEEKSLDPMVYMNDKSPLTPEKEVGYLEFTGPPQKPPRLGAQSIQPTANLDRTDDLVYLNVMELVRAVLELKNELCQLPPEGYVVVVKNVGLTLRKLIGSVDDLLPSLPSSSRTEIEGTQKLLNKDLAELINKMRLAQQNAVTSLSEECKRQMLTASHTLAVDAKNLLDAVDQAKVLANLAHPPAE
RAF proto-oncogene serine/threonine-protein kinase (Homo sapiens), P04049 [Y340D,Y341D], sequence (P04049 whole entry Y340D/Y341D): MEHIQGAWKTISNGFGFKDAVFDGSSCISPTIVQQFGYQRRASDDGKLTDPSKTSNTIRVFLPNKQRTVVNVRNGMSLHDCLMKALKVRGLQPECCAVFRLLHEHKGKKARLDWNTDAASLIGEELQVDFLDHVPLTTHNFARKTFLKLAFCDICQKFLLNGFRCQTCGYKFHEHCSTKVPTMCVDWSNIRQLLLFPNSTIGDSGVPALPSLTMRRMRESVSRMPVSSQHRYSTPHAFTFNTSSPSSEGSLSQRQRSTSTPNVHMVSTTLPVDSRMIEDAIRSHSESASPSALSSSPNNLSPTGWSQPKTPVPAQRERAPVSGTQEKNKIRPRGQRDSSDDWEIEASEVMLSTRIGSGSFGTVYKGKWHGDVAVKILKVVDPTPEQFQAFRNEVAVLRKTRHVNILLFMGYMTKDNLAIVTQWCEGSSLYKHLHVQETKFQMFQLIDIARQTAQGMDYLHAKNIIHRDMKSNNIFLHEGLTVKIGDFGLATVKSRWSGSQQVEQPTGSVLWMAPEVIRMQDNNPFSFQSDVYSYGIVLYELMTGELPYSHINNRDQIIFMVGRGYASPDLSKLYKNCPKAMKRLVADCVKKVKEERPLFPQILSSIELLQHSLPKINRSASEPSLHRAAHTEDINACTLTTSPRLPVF
Angiopoietin-1 receptor (Homo sapiens), sequence (Q02763 whole entry): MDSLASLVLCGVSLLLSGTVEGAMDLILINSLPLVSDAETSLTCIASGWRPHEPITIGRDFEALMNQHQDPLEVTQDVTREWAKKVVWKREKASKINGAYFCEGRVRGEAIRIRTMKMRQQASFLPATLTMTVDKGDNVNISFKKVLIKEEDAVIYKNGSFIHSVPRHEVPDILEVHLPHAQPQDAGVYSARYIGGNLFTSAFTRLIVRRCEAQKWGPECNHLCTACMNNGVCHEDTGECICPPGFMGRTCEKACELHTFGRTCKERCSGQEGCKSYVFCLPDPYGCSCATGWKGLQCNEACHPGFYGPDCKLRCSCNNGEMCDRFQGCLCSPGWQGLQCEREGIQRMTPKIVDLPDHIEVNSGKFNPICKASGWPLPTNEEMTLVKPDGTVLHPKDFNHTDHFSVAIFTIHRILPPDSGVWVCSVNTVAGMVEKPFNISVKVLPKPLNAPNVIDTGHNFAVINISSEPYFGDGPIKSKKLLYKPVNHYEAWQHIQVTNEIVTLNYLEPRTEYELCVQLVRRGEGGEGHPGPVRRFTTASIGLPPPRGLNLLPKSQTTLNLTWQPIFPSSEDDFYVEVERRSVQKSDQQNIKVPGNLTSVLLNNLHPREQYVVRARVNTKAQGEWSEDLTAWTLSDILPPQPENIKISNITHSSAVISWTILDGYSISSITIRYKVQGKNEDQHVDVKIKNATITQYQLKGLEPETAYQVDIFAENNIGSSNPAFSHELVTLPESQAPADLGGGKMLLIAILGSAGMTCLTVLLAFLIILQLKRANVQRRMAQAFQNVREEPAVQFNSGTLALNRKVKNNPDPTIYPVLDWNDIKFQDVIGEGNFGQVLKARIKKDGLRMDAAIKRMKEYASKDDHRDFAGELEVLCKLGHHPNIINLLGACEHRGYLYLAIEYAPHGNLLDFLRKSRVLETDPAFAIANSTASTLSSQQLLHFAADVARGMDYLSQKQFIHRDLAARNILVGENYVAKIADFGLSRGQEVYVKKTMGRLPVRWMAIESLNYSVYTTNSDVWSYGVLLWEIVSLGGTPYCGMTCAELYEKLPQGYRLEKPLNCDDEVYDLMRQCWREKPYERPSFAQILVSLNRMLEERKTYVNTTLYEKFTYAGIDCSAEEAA

Regarding `Cc1cc([C@@H](C)Nc2ccccc2C(=O)O)c2nc(N3CCOCC3)cc(=O)n2c1` [AZD-6482], in assay [1], the % of control is 99%. Take `Nc1cnc(N2CCc3cc(S(=O)(=O)Nc4c(F)cc(Cl)cc4F)cc(N4CCCC4=O)c32)nc1` [TP-020n]: in assay [2], the % of inhibition stood at 3.7%. As to `Cc1cc(F)c(C(=O)Nc2cccc(-c3nncn3C(C)C)n2)cc1-n1cnc(C2CC2)c1`, the % of control in assay [3] and in assay [4] was 100% each time. Regarding `Cc1cnc(Nc2ccc(F)cc2Cl)nc1-c1c[nH]c(C(=O)N[C@H](CO)c2cccc(Cl)c2)c1`, in assay [5], the % of inhibition worked out at 0%.

In assay [6], `CNC(=O)Nc1ccc(-c2nc(N3CC4CCC(C3)O4)c3cnn(C4CCC5(CC4)OCCO5)c3n2)cc1` gave a % of inhibition of 12%. The % of control in assay [7] stood at 100%. For the compound `CC[C@@H]1[C@H](F)C(=O)N[C@@H]1COc1nccc2cc(C(N)=O)c(OC)cc12` [ZIMLOVISERTIB], the % of inhibition in assay [8] came out at 1.4%.
